Target: Cyclin-dependent kinase 2/cyclin E1 (Homo sapiens, UniProt P24941)
Test: Inhibition of human GST-tagged CDK2/FLAG-Cyclin E1 (unknown origin) expressed in baculovirus expression system incubated for 60 mins by HTRF enzyme activity assay

SMILES	IC50
CNS(=O)(=O)c1ccc(Nc2ncc3c(n2)N(c2cc4c(cc2Cl)CNCC4)C(=O)C32CC2)cc1	≤ 50 nM
CN(C)CCNS(=O)(=O)c1ccc(Nc2ncc3c(n2)N(c2cc(F)ccc2Cl)C(=O)C32CC2)cc1	≤ 50 nM
CNS(=O)(=O)c1ccc(Nc2ncc3c(n2)N([C@@H]2CCC[C@H]2C)C(=O)C32CC2)cc1	≤ 50 nM
CC1(NS(=O)(=O)c2ccc(Nc3ncc4c(n3)N([C@@H]3CCC[C@]3(C)O)C(=O)C43CC3)cc2)CNC1	≤ 50 nM
CC1CCCC1N1C(=O)C2(CC2)c2cnc(Nc3ccc(S(=O)(=O)N[C@@H]4CCCN(C)C4)cc3)nc21 (stereo partly specified)	≤ 50 nM
CC[C@@H](N1C(=O)C2(CC2)c2cnc(Nc3ccc(S(=O)(=O)NC)cc3)nc21)C(F)(F)F	≤ 50 nM

— ChEMBL document CHEMBL4825774, “Sulfonylamide Compounds as CDK2 Inhibitors for Treating Cancer” (ACS Med Chem Lett, 2021)
